ChEMBL document CHEMBL1149405, “Cytotoxicity of novel derivatives of the spin trap EMPO” (2006)
The source made the active and inactive calls. No cut-off for these calls is given here.

Assays:
[1] = tested on: SK-BR-3; experiment: LDH release per cell after 24 h with 50 mM of compound in SKBr3 cell line; type: functional, Homo sapiens
[2] = tested on: SW480; experiment: Decrease in cell number against human colon carcinoma SW480 cell line at 50 mM; type: functional; design: scale not given: the % may be the effect or the level left
[3] = tested on: F2000; experiment: LDH release per cell after 24 h with 50mM of compound F2000 fibroblasts; type: functional, Homo sapiens
[4] = tested on: SW480; experiment: LDH release per cell after 24 h with 50 mM of compound in SW480 cell line; type: functional, Homo sapiens
[5] = tested on: SW480; experiment: Decrease in intracellular GSH levels at 50 mM expressed in […] cell line; type: functional, Homo sapiens; design: scale not given: the % may be the effect or the level left
[6] = tested on: SW480; experiment: Increase in intracellular GSH levels at 10mM expressed in […] cell line; type: functional, cell-based; details: Homo sapiens
[7] = tested on: SW480; experiment: Decrease in cell number against human colon carcinoma SW480 cell line at 100 mM; type: functional; design: scale not given: the % may be the effect or the level left
[8] = tested on: SW480; experiment: Increase in intracellular GSH levels at 50 mM expressed in […] cell line; type: functional, cell-based; details: Homo sapiens

Structure (SMILES) | Activity [1] | Activity [2] | Activity [3] | Activity [4] | Activity [5] | Activity [6] | Activity [7] | Activity [8]
CCCOC(=O)C1(C)CCC=[N+]1[O-] (configuration not stated) | 60% | 10% | 105% | 91% | 38% | Active | <60% | 
CC(C)OC(=O)C1(C)CCC=[N+]1[O-] (configuration not stated) | 54% | 10% | 84% | 78% |  | Active | <60% | Active
CC(C)(C)OC(=O)C1(C)CCC=[N+]1[O-] (configuration not stated) | 720% | 10% | 670% | 1280% |  |  | >90% | 
CCC(C)OC(=O)C1(C)CCC=[N+]1[O-] (configuration not stated) | 101% | 10% | 1211% | 1404% | 67% |  | >90% | 
CCCCOC(=O)C1(C)CCC=[N+]1[O-] (configuration not stated) |  | 10% |  |  |  |  | >90% | 
